Data reported in article PMC3574223 (Bioorganic & medicinal chemistry, 2013).

Test system: human aortic smooth muscle cells (HASMCs)
Assay: Intracellular NO determination using DAF-FM DA
Format: cell-based
Conditions: increasing ABH concentrations 1 µM-5 mM

Compound: N[C@@H](CCCCB(O)O)C(=O)O [ABH, S-2-amino-6-boronic acid]
- intracellular NO and/or N2O3 (DAF-FM DA fluorescence): the amount of intracellular NO rises with increasing concentrations of ABH
